Source: ChEMBL document CHEMBL5620381, “Design, synthesis and antitubercular activity of novel N-(amino)piperazinyl benzothiazinones with improved safety” (Eur J Med Chem, 2023)
In brackets after ≈: the same amount, converted by molar mass.

How the values were obtained:
[1] = test system: Mycobacterium tuberculosis; assay: Antitubercular activity against Mycobacterium tuberculosis H37Rv […] incubated for 8 days by MABA; type: functional; conditions: 192 h, time 8 day
[2] = Cytotoxicity against human THP-1 cells incubated for 48 hrs by MTS/PMS assay; type: toxicity, cell-based
hERG (KCNH2) = hERG (KCNH2) (Homo sapiens, UniProt Q12809); assay: Inhibition of human ERG expressed in HEK293 cells at 10 uM by whole cell patch clamp assay relative to control; type: toxicity, cell-based; conditions: HEK293 cells expressing human ERG
[3] = Selectivity index, ratio of CC50 for human THP-1 cells to MIC for Mycobacterium tuberculosis H37Rv […]; type: toxicity; conditions: read-out: Selectivity Index
[4] = Toxicity in ICR mouse assessed as increase in body weight at 500 mg/kg, po administered as single dose and measured for 7 days; type: organism-based; conditions: in vivo, 168 h, time 7 day
[5] = Toxicity in ICR mouse assessed as animal death at 500 mg/kg, po administered as single dose and measured for 7 days; type: organism-based; conditions: in vivo, 168 h, time 7 day
[6] = Toxicity in po dosed ICR mouse administered as single dose and measured for 7 days; type: organism-based; conditions: in vivo, time 7 day
[7] = Half-life in ICR mouse at 25 mg/kg, po measured upto 24 hrs by HPLC analysis; type: ADME, organism-based; conditions: in vivo
[8] = Tmax in ICR mouse at 25 mg/kg, po measured upto 24 hrs by HPLC analysis; type: ADME, organism-based; conditions: in vivo
[9] = Cmax in ICR mouse at 25 mg/kg, po measured upto 24 hrs by HPLC analysis; type: ADME, organism-based; conditions: in vivo
[10] = AUC(0 to infinity) in ICR mouse at 25 mg/kg, po measured upto 24 hrs by HPLC analysis; type: ADME, organism-based; conditions: in vivo
[11] = Mean residence time in ICR mouse at 25 mg/kg, po measured upto 24 hrs by HPLC analysis; type: ADME, organism-based; conditions: in vivo
[12] = Toxicity in ICR mouse assessed as depression at 500 mg/kg, po administered as single dose and measured on next day; type: organism-based; conditions: in vivo, 24 h, time 1 day
[13] = Toxicity in ICR mouse assessed as depression at 500 mg/kg, po administered as single dose and measured after 3 to 7 days; type: organism-based; conditions: in vivo, time 3-7 day

Chain of hERG (KCNH2) (Q12809 whole entry): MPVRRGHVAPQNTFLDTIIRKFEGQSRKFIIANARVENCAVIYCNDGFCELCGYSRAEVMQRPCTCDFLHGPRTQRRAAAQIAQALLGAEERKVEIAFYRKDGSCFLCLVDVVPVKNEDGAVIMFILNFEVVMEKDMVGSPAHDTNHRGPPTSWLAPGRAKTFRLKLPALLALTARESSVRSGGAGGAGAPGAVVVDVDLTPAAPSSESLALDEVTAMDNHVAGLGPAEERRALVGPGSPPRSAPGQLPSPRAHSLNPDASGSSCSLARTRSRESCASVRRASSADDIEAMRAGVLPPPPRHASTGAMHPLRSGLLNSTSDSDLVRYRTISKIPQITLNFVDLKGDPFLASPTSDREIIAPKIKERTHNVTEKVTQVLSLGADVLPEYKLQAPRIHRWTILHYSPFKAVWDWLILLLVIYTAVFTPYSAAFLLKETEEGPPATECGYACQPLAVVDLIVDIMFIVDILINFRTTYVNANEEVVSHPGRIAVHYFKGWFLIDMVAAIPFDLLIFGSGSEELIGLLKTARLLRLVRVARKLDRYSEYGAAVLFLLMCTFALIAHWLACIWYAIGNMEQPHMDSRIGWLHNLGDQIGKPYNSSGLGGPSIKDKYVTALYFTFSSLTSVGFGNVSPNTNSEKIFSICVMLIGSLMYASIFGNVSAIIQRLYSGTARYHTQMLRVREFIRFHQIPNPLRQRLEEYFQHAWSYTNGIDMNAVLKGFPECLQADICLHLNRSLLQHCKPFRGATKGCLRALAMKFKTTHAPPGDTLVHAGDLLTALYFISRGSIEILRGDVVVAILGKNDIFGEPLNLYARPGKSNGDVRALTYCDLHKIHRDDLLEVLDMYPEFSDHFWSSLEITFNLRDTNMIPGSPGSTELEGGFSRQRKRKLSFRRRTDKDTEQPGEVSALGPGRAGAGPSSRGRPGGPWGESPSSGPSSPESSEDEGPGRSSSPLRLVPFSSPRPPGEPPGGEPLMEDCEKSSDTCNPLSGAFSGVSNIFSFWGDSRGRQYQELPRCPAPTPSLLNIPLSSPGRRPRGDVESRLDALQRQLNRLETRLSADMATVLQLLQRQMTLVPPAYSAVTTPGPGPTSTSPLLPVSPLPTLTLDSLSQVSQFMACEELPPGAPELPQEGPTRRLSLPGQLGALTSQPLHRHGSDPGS

Structure (SMILES)	MIC [1] [µg/mL]	CC50 at 48 h [2] [µg/mL]	inhibition at 10 µM (hERG (KCNH2)) [%]	selectivity ratio [3]	other results
CC1CCC(N(C)N2CCN(c3nc(=O)c4cc(C(F)(F)F)cc([N+](=O)[O-])c4s3)CC2)CC1 (centres undefined)	< 0.001	> 64	32.7	> 4200	
O=c1nc(N2CCN(NC3CCCCCCC3)CC2)sc2c([N+](=O)[O-])cc(C(F)(F)F)cc12	< 0.001	46.9 (≈ 96.7 µM)		> 4200	
O=c1nc(N2CCN(NC3CCCCC3)CC2)sc2c([N+](=O)[O-])cc(C(F)(F)F)cc12	< 0.001	> 64		> 4200	
CC1CCCCC1NN1CCN(c2nc(=O)c3cc(C(F)(F)F)cc([N+](=O)[O-])c3s2)CC1 (centres undefined)	0.0014 (≈ 0.00297 µM)	48.7 (≈ 103 µM)		> 4200	
CON=C1CCC(N(C)N2CCN(c3nc(=O)c4cc(C(F)(F)F)cc([N+](=O)[O-])c4s3)CC2C)CC1 (centres undefined)	0.0143 (≈ 0.0271 µM)	12.3 (≈ 23.3 µM)	23.1	> 4200	
CN(C1CCC(C)(C)CC1)N1CCN(c2nc(=O)c3cc(C(F)(F)F)cc([N+](=O)[O-])c3s2)CC1	< 0.001	> 64	6.1	> 4200	Activity [4]: Toxic; Activity [5]: Non-Toxic; LD50 at 168 h [6]: > 500 mg/kg; half-life [7]: 5.07 h; Tmax [8]: 0.5 h; Cmax [9]: 501 ng/mL; AUC(0-inf) [10]: 1190 ng·h/mL; MRT [11]: 3.91 h
CO[C@H]1/C=C/O[C@@]2(C)Oc3c(C)c(O)c4c(O)c(c(/C=N/N5CCN(C)CC5)c(O)c4c3C2=O)NC(=O)/C(C)=C\C=C\[C@H](C)[C@H](O)[C@@H](C)[C@@H](O)[C@@H](C)[C@H](OC(C)=O)[C@@H]1C [RIFAMPIN]	0.019 (≈ 0.0231 µM)	> 64			
CC1CCC(C)C(N(C)N2CCN(c3nc(=O)c4cc(C(F)(F)F)cc([N+](=O)[O-])c4s3)CC2)C1 (centres undefined)	< 0.001	> 64		> 4200	
CC1CN(c2nc(=O)c3cc(C(F)(F)F)cc([N+](=O)[O-])c3s2)CCN1N(C)C1CCCCC1 (centres undefined)	< 0.001	> 64		> 4200	
CN(C1CCCCC1)N1CCN(c2nc(=O)c3cc(C(F)(F)F)cc([N+](=O)[O-])c3s2)CC1	< 0.001	> 64	27.3	> 4200	
CON=C1CCC(N(C)N2CCN(c3nc(=O)c4cc(C(F)(F)F)cc([N+](=O)[O-])c4s3)CC2)CC1 (centres undefined)	< 0.001	> 64		> 4200	
CN(C1CCCCC1)N1CCN(c2nc(=O)c3cc(C(F)(F)F)cc([N+](=O)[O-])c3s2)CC1(C)C	0.0015 (≈ 0.003 µM)	> 64	45.7	> 4200	
CC1CC(N(C)N2CCN(c3nc(=O)c4cc(C(F)(F)F)cc([N+](=O)[O-])c4s3)CC2)CC(C)(C)C1 (centres undefined)	< 0.001	> 64		> 4200	
CCON=C1CCC(N(C)N2CCN(c3nc(=O)c4cc(C(F)(F)F)cc([N+](=O)[O-])c4s3)CC2)CC1 (centres undefined)	0.0118 (≈ 0.0223 µM)	50.1 (≈ 94.8 µM)		> 4200	
CN(C1CCC(F)(F)CC1)N1CCN(c2nc(=O)c3cc(C(F)(F)F)cc([N+](=O)[O-])c3s2)CC1	< 0.001	> 64		> 4200	
CN(C1CCC2(CCCCC2)CC1)N1CCN(c2nc(=O)c3cc(C(F)(F)F)cc([N+](=O)[O-])c3s2)CC1	< 0.001	51.9 (≈ 96.2 µM)		> 4200	
CC1CCCCC1N(C)N1CCN(c2nc(=O)c3cc(C(F)(F)F)cc([N+](=O)[O-])c3s2)CC1 (centres undefined)	0.00135 (≈ 0.00278 µM)	> 64		> 4200	
O=c1nc(N2CCN(NC3CCC(F)(F)CC3)CC2)sc2c([N+](=O)[O-])cc(C(F)(F)F)cc12	0.00311 (≈ 0.0063 µM)	> 64	46.8	> 4200	
CN(C1CCC(C)(C)CC1)N1CCN(c2nc(=O)c3cc(C(F)(F)F)cc([N+](=O)[O-])c3s2)CC1(C)C	< 0.001	> 64	18.1	> 4200	Activity [4]: Toxic; Activity [5]: Non-Toxic; LD50 at 168 h [6]: > 500 mg/kg; Activity [12]: Toxic; Activity [13]: Non-Toxic
CN(C1CCC(=NOC(C)(C)C)CC1)N1CCN(c2nc(=O)c3cc(C(F)(F)F)cc([N+](=O)[O-])c3s2)CC1 (centres undefined)	0.00721 (≈ 0.013 µM)	> 64		> 4200	
CC1(C)CCC(NN2CCN(c3nc(=O)c4cc(C(F)(F)F)cc([N+](=O)[O-])c4s3)CC2)CC1	< 0.001	58.1 (≈ 120 µM)	19.9	> 4200	Activity [4]: Toxic; Activity [5]: Non-Toxic; LD50 at 168 h [6]: > 500 mg/kg; half-life [7]: 1.23 h; Tmax [8]: 0.25 h; Cmax [9]: 755 ng/mL; AUC(0-inf) [10]: 971 ng·h/mL; MRT [11]: 1.63 h
CN(C1C2CC3CC(C2)CC1C3)N1CCN(c2nc(=O)c3cc(C(F)(F)F)cc([N+](=O)[O-])c3s2)CC1 (centres undefined)	0.0025 (≈ 0.00477 µM)	> 64		> 4200	
O=c1nc(N2CCN(CC3CCCCC3)CC2)sc2c([N+](=O)[O-])cc(C(F)(F)F)cc12 [MACOZINONE]	< 0.001	> 64			
CN(CC1CCC(F)(F)CC1)N1CCN(c2nc(=O)c3cc(C(F)(F)F)cc([N+](=O)[O-])c3s2)CC1	< 0.001	> 64		> 4200	
CN(C1CCCCCCC1)N1CCN(c2nc(=O)c3cc(C(F)(F)F)cc([N+](=O)[O-])c3s2)CC1	< 0.001	> 64		> 4200	
NNC(=O)c1ccncc1 [ISONIAZID]	0.0374 (≈ 0.273 µM)	> 64			
CC1CN(c2nc(=O)c3cc(C(F)(F)F)cc([N+](=O)[O-])c3s2)CCN1N(C)C1CCC(C)(C)CC1 (centres undefined)	< 0.001	> 64	35.5	> 4200	Activity [4]: Toxic; Activity [5]: Non-Toxic; LD50 at 168 h [6]: > 500 mg/kg; Activity [12]: Toxic; Activity [13]: Non-Toxic
CC1CCC(NN2CCN(c3nc(=O)c4cc(C(F)(F)F)cc([N+](=O)[O-])c4s3)CC2)CC1 (centres undefined)	< 0.001	> 64		> 4200	
CON=C1CCC(N(C)N2CCN(c3nc(=O)c4cc(C(F)(F)F)cc([N+](=O)[O-])c4s3)CC2(C)C)CC1 (centres undefined)	0.0631 (≈ 0.116 µM)	4.91 (≈ 9.05 µM)		> 4200	
